Source: paper PMC11726677, “Eradication of Therapy-Resistant Cancer Stem Cells by Novel Telmisartan Derivatives” (Journal of Medicinal Chemistry, 2024)
Where “and” joins values, the source holds several entries; their conditions need not be identical. Equal values may be shown once.

Experiments:
STAT5 [1] = assay: Jess Simple Western immunoassay of STAT5/pSTAT5 in A549 cells; format: cell-based, human; details: A549, 10 μM, 72 h
Method: (§1) The impact of STAT5 activation on the mode of action was investigated in selected solid tumor cell lines as well.
(§2) Protein extracts were prepared as previously described.[44] Protein expression was determined using the capillary-based Jess Simple Western detection system (ProteinSimple, BioTechne) according to the manufacturer’s instructions at default settings. […] Horseradish peroxidase (HRP)-conjugated secondary antirabbit antibody, which was included in the Jess Detection Module kit, was used. Data analysis was conducted using Compass for Simple Western 4.0 software (ProteinSimple, BioTechne).

DU145-DR cells (ABCB1+) = assay: SP analysis (DCV, flow cytometry) in DU145-DR cells; format: cell-based, human; details: 10 μM
From the text: (§3) In recent studies, we described the side population (SP) phenotype as a marker that defines a heterogeneous cellular compartment with stem cell-characteristics in various cancer cell lines derived from solid tumors, such as ovarian cancer, breast cancer, and lung cancer.[26],[27]

PC3-DR cells (ABCB1+) = assay: SP analysis (DCV, flow cytometry) in PC3-DR cells; format: cell-based, human; details: 10 μM
From the text: as §3

A549 cells (ABCC1+) = assay: SP analysis (DCV, flow cytometry) in A549 cells; format: cell-based, human; details: A549, 10 μM
From the text: as §3

STAT5 [2] = assay: Jess Simple Western immunoassay of STAT5/pSTAT5 in MCF7 cells; format: cell-based, human; details: MCF7, 10 μM, 72 h
Method: as §1, §2

[3] = system: IGROV-1 SP cells (ABCB1+); assay: SP analysis (DCV, flow cytometry) in IGROV-1 SP cells; format: cell-based, human; details: 10 μM
From the text: as §3

IGROV-1 SP cells = assay: Chemosensitizing to paclitaxel: metabolic activity of IGROV-1 SP cells (MTT); format: cell-based, human; details: compound 10 μM + PTX 10 nM, 72 h
Method: (§4) The chemosensitizing efficacy was investigated in the ovarian and prostate cancer cell lines using the above-described metabolic activity assay. Paclitaxel (PTX) served as a reference (CTR) in A2780 V SP and IGROV-1 SP cells and docetaxel (DTX) in PC3-DR and D145-DR cells.
(§5) COS-7 (2 × 10^3 cells per well), IGROV-1 SP (2.5 × 10^3 cells per well), A2780 V SP (1.5 × 10^3 cells per well), PC3-DR (4 × 10^3 cells per well), and DU145-DR (3 × 10^3 cells per well) cells were seeded in 96-well plates in triplicates and after 24 h, the compounds were added at the respective concentrations. K562-R and K562 cells (2 × 10^4 cells per well), were treated with the compounds 2 h after seeding. […] A modified MTT colorimetric assay (EZ4U kit, Biomedica) was used to determine the metabolic activity of the tested cells, according to the manufacturer’s instructions. Absorbance was measured and the optical density of the respective FCS-containing medium and of the substrate was subtracted to exclude nonspecific staining. Metabolic activity in the absence of the compounds (CTR, DMSO) was set to 100% as reference.

K562-R cells [4] = assay: Chemosensitizing: metabolic activity of K562-R cells cotreated with imatinib (modified MTT assay); format: cell-based, human; details: 72 h
Method: (§6) The potential reduction in cell viability was determined using the modified MTT assay.
conc. 10 to 0.5 μM) over 72 h (Figure 3D).
as §5

STAT5 [5] = assay: Jess Simple Western immunoassay of STAT5/pSTAT5 in IGROV-1 SP cells; format: cell-based, human; details: 10 μM, 72 h; for STAT5 protein expression: IGROV1 SP
Method: as §1, §2

ABCB1 [6] = assay: Jess Simple Western immunoassay of ABCB1 expression in K562-R cells; format: cell-based, human; details: 4 μM, 72 h
Method: as §2

MCF7 cells (ABCG2+) = assay: SP analysis (DCV, flow cytometry) in MCF7 cells; format: cell-based, human; details: MCF7, 10 μM
From the text: as §3

[7] = biological target: T1, ABCB1 transporter in K562-R cells (Homo sapiens, UniProt P08183); assay: Side population (SP) analysis, DCV staining, flow cytometry; details: 10 μM
Method: (§7) SP analyses were performed as previously described[45] on a LSRFortessa flow cytometer (BD Biosciences, Vienna, Austria). Briefly, 1 × 10^6 cells/mL were stained with 10 μM Vybrant DyeCycleTM Violet (DCV; Molecular Probes, Eugene, OR) in the presence or absence of the investigated compounds for 90 min at 37 °C. […] Subsequently, the cells were washed and immediately analyzed using flow cytometry. The FlowJo 9.6 software was used for data analyses (Tree Star Software, Ashland, CA).

A2780 V SP cells = assay: Chemosensitizing to paclitaxel: metabolic activity of A2780 V SP cells (MTT); format: cell-based, human; details: compound 10 μM + PTX 10 nM, 72 h
Method: as §4, §5

[8] = system: A2780 V SP cells (ABCB1+); assay: SP analysis (DCV, flow cytometry) in A2780 V SP cells; format: cell-based, human; details: 10 μM
From the text: as §3

STAT5 [9] = assay: Jess Simple Western immunoassay of STAT5/pSTAT5 in K562-R cells; format: cell-based, human; details: 4 μM + imatinib 1 μM, 6 h
Method: In the next step, the effects of the compounds (4 μM) on STAT5 in K562-R cells were examined.
as §2

STAT5 [10] = assay: Jess Simple Western immunoassay of STAT5/pSTAT5 in A2780 V SP cells; format: cell-based, human; details: 10 μM, 72 h
Method: as §1, §2

[11] = system: primary human CML patient samples; assay: Colony forming cell (CFC) assay, primary CML patient samples; format: cell-based; details: together with 1 μM of imatinib, once at the beginning of the 14 day assay; compound 10 μM
From the text: Frozen peripheral blood mononuclear cells (PBMC) from TKI naïve CML patients and healthy controls were used for the CFC assay as described previously.[46] Briefly, thawed cells were resuspended a semisolid medium (Enriched MethocCult H4435, Stem Cell Technologies) supplemented with the respective compounds and cultured in small culture dishes for 2 weeks. Colonies were counted using an inverted microscope.

[12] = biological target: T1, ABCB1 transporter in K562-R cells; details: 90 min, 10 μM
Method: as §7

[13] = not told; cited from earlier work
K562-R cells [14] = assay: Metabolic activity of K562-R cells, compounds alone (modified MTT assay); format: cell-based, human; details: 10 μM, 72 h, without imatinib; vehicle control = 100%
Method: as §6
First, the compounds (10 μM) were applied alone to evaluate their effects per se.
as §5

[15] = set-up: method as in PMID 23054986; details: cited from earlier work
ABCB1 [16] = system: ABCB1; set-up: method as in Weiss et al. 38; details: ref Weiss et al. 38; cited from earlier work
[17] = set-up: method as in PMID 32759366; details: rat hepatocytes ref 30; cited from earlier work
DU145-DR cells = assay: Chemosensitizing to docetaxel: metabolic activity of DU145-DR cells (MTT); format: cell-based, human; details: compound 10 μM + DTX 12.5 nM, 72 h
Method: as §4, §5

PC3-DR cells = assay: Chemosensitizing to docetaxel: metabolic activity of PC3-DR cells (MTT); format: cell-based, human; details: compound 10 μM + DTX 12.5 nM, 72 h
Method: as §4, §5

[18] = Body weight / tolerability in the K562-R xenograft study; details: 7c 10 mg/kg, imatinib 50 mg/kg, PO QD × 30 days
K562-R cells [19] = assay: Metabolic activity of K562-R cells, compounds alone (modified MTT assay); format: cell-based, human; details: imatinib 1 μM, 72 h; compared to the 100% solvent control
[20] = system: human CML K562-R xenograft; assay: Efficacy in human CML K562-R xenograft model; format: in vivo, female NOD/SCID mice; set-up: % T/C (treatment/control) / % TGI (tumor growth inhibition): concentration or dose not given beside the values; details: for % TGI (tumor growth inhibition): vs vehicle control
Method: The animals were checked daily for humane end points. Body weight was measured and recorded daily after dosing.
The % T/C value, defined as the ratio of the mean tumor volume for the treated versus control group, was calculated as % T/C = (Tn/Cn) × 100%; whereas Tn: denotes mean tumor volume of the treated group on day n, and Cn: denotes mean tumor volume of the control group on day n. The optimal value is the minimal % T/C ratio, which reflects the maximal tumor growth inhibition achieved.
TGI (Tumor growth inhibition) was calculated by the following formula [drawing 1] [drawing 2]
Whereas: Tn: denotes the mean tumor volume of the treated group on day n; T1: denotes the mean tumor volume of the treated group on day 1; Cn: denotes the mean tumor volume of the vehicle control group on day n; and C1: denotes the mean tumor volume of the vehicle control group at day 1.

T1 sequence (P08183 whole entry): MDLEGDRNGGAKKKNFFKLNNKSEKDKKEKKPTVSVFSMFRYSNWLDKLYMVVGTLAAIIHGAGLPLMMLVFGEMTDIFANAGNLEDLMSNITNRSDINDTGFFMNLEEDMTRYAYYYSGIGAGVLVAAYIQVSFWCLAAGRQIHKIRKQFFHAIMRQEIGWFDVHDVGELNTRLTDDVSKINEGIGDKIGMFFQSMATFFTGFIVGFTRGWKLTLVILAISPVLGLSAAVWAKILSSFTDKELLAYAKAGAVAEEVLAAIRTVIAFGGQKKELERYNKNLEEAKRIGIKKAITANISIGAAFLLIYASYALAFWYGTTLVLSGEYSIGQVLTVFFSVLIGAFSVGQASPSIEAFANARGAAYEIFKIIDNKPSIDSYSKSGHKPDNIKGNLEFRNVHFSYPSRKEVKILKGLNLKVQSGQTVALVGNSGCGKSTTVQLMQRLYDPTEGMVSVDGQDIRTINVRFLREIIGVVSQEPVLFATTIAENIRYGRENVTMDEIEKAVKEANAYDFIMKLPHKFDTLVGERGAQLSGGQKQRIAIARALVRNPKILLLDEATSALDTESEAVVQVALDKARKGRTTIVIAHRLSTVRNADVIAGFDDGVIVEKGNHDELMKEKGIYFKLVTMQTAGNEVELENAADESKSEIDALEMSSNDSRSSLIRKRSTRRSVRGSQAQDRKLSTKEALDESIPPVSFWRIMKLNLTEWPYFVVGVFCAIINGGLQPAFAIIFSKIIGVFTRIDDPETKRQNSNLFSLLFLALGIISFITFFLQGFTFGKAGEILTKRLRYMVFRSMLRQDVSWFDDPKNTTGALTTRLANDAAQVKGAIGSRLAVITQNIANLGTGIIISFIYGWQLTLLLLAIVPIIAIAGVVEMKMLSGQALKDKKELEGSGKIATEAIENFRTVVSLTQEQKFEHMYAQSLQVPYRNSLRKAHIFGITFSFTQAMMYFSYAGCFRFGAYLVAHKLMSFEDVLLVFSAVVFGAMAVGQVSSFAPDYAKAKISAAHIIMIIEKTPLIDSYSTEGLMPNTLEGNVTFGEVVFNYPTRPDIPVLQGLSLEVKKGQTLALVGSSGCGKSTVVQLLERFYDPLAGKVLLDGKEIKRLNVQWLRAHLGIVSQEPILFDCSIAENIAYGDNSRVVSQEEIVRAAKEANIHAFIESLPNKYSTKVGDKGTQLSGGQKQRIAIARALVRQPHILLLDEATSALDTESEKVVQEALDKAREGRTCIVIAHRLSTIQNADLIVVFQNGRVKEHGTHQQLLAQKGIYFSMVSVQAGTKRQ

CCCc1nc2ccccc2n1Cc1ccc(-c2ccc(C(N)=O)cc2)cc1 [6c, 4′-((2-Propyl-1H-benzo[d]imidazole-1-yl)methyl)-[1,1′-biphenyl]-4-carboxamide]
phosphorylation status of STAT5 (STAT5 [1]): efficiently repressed the phosphorylation status of STAT5 | effect on SP phenotype (DU145-DR cells (ABCB1+)): effectively targeted the SP phenotype | effect on SP phenotype (PC3-DR cells (ABCB1+)): effectively targeted the SP phenotype | effect on SP phenotype (A549 cells (ABCC1+)): nearly inactive | phosphorylation status of STAT5 (STAT5 [2]): efficiently repressed the phosphorylation status of STAT5 | effect on SP phenotype [3]: effectively targeted the SP phenotype | viability / antimetabolic effect in combination with PTX (IGROV-1 SP cells): increased the antimetabolic effect of PTX | EC50 (K562-R cells [4]; K562-R, + imatinib 1 μM, read-out: SC50 (drug concentration eliciting 50% of the maximum sensitizing effect)): 1.49 µM | metabolic activity of K562-R cells, combination with imatinib (K562-R cells [4]; compound 10 μM + imatinib 1 μM): 8–24% | STAT5 protein expression (STAT5 [5]): significantly suppressed STAT5 | phosphorylation status of STAT5 (STAT5 [5]; IGROV-1 SP): efficiently repressed the phosphorylation status of STAT5 | ABCB1 protein expression (ABCB1 [6]): none of the compounds abrogated the ABCB1 protein expression | effect on SP phenotype (MCF7 cells (ABCG2+)): nearly inactive | effect on SP phenotype / ABCB1 activity [7]: efficiently reduced the ABCB1 activity | relation of SP and NSP [7]: about 50% | chemosensitizing to PTX therapy (A2780 V SP cells): particularly sensitized | effect on SP phenotype [8]: effectively targeted the SP phenotype | phosphorylation of STAT5 (STAT5 [9]): marked repression of the STAT5 phosphorylation | phosphorylation status of STAT5 (STAT5 [10]): efficiently repressed the phosphorylation status of STAT5

CCCc1nc2c(C)cc(-c3nc4ccccc4n3C)cc2n1Cc1ccc(-c2ccccc2C(=O)O)cc1 [7a, telmisartan]
number of colonies (CFC) [11]: virtually ineffective | percentage of cells within SP gate [12]: 76.0% | effect on SP phenotype (DU145-DR cells (ABCB1+)): only modestly affected | effect on SP phenotype (PC3-DR cells (ABCB1+)): only modestly affected | apparent permeability coefficient (Papp) [13]: 29 10^–6 cms^–1 | effect on SP phenotype (A549 cells (ABCC1+)): significantly inhibited the SP phenotype | effect on SP phenotype [3]: only modestly affected | viability / antimetabolic effect in combination with PTX (IGROV-1 SP cells): increased the antimetabolic effect of PTX | metabolic activity of K562-R cells, combination with imatinib (K562-R cells [4]; compound 8 μM + imatinib 1 μM): 55% | metabolic activity of K562-R cells, combination with imatinib (K562-R cells [4]; compound 10 μM + imatinib 1 μM): 34–58% | STAT5 protein expression (STAT5 [5]): significantly suppressed STAT5 | metabolic activity of K562-R cells, compound alone (K562-R cells [14]): inactive | reported aqueous solubility [15]: 9.9 µg/mL | inhibition of ABCB1 (ABCB1 [16]): impeded ABCB1 | CLint [17]: about 23 μL/min/10^6 cells | effect on SP phenotype (MCF7 cells (ABCG2+)): significantly inhibited the SP phenotype | chemosensitizing to PTX therapy (A2780 V SP cells): least active chemosensitizer | chemosensitizing to DTX (antimetabolic activity) (DU145-DR cells): did not significantly reduce the metabolic activity | effect on SP phenotype [8]: only modestly affected | chemosensitizing to DTX (antimetabolic activity) (PC3-DR cells): only marginally increased the antimetabolic activity of DTX

Cc1ccc(NC(=O)c2ccc(CN3CCN(C)CC3)cc2)cc1Nc1nccc(-c2cccnc2)n1 [Imatinib, imatinib, reference compound]
tolerability [18]: well tolerated | metabolic activity of K562-R cells, imatinib alone (K562-R cells [19]): 73% | % TGI (tumor growth inhibition) ([20]; Day 5): 76% | % TGI (tumor growth inhibition) ([20]; Day 8): 54% | % TGI (tumor growth inhibition) ([20]; Day 12): 50% | % TGI (tumor growth inhibition) ([20]; Day 15): 66% | % TGI (tumor growth inhibition) ([20]; Day 19): 57% | % TGI (tumor growth inhibition) ([20]; Day 22): 57% | % TGI (tumor growth inhibition) ([20]; Day 26): 56% | % TGI (tumor growth inhibition) ([20]; Day 29): 55% | % TGI (tumor growth inhibition) ([20]; Day 33): 59% | Tumor Weight, individual animal ([20]; harvested on day 33, animals No. 1–7): 4.442 g and 0.194 g and 0.080 g and 0.082 g and 0.351 g and 3.076 g and 0.081 g | Tumor Weight, group mean ([20]; harvested on day 33, n = 7): 1.200 g
